{"source": "patent US6710088B2", "about": "(NPS Pharmaceuticals, Inc., priority 1996, dated 2004)", "note": "Where a name gives a salt, the structure may show the parent alone.", "data": [{"biological_target": "T1, calcium receptor (Homo sapiens, UniProt P41180)", "T1 construct": "expressed in transfected cells; host or cells: HEK 293 4.0-7", "T1 sequence (P41180 20-1078)": "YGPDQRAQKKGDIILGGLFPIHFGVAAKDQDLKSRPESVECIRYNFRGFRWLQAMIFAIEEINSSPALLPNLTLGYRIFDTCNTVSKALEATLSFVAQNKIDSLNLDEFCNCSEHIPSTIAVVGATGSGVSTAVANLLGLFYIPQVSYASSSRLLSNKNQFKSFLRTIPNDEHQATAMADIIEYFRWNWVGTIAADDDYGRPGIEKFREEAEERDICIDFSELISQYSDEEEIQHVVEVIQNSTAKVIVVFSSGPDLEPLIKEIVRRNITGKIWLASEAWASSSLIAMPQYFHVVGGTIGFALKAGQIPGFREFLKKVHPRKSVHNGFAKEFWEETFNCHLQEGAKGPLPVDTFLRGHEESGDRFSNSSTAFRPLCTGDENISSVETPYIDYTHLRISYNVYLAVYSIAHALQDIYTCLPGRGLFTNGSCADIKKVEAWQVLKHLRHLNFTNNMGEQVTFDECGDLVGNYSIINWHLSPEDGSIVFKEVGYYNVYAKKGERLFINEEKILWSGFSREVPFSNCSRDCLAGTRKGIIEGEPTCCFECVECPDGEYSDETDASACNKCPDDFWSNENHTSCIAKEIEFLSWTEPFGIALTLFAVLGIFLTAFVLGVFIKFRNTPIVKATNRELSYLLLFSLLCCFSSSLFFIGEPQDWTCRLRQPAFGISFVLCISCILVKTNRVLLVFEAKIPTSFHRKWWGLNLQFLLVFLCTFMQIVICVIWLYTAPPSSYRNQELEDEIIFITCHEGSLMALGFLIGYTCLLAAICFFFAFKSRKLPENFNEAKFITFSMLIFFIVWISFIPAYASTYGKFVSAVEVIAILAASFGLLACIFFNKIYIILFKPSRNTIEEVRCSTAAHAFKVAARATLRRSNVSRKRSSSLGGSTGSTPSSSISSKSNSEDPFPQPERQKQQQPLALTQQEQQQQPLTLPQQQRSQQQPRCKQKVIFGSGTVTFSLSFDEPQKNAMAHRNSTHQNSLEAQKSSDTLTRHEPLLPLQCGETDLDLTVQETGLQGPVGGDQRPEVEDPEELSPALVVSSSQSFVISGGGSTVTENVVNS", "test": "Calcium receptor activity in recombinant HEK 293 4.0-7 cells (fluorescence of dye-loaded cells)", "format": "cell-based", "details": "recombinant HEK 293 4.0-7 cells containing a calcium receptor; 1 mM CaCl2, 1 mM MgCl2; fluorescence 340/510 nm", "procedure": "Recombinant HEK 293 4.0-7 cells containing a calcium receptor were constructed as described by Rogers et al., J. Bone Miner. Res. 10 Suppl. 1:S483, 1995 (hereby incorporated by reference herein). The recombinant cells were loaded with fura-2 by incubating the cells in Dulbecco's modified Eagle's medium buffered with 20 mM HEPES containing about 5 μM […] for one hour at room temperature. Cells were then rinsed with Hank's balanced salt solution buffered with 20 mM HEPES containing 1 mM CaCl2 and 1 mM MgCl2. Compounds to be tested were then added to the cells and fluorescence was measured (excitation and emission wavelengths of 340 and 510 nm, respectively).", "units": {"EC50": "µM"}, "values": [{"molecule": "CC[C@@H](N[C@H](C)c1cccc2ccccc12)c1ccc(OC)c(C)c1", "note": "[Compound 26F, hydrochloride]", "EC50": 0.015}, {"molecule": "C[C@@H](NCC=Cc1ccccc1)c1cccc2ccccc12", "note": "[Compound 26H, (R)-N-(3-phenyl-2-propenyl)-1-(1-naphthyl)ethylamine hydrochloride]", "EC50": 0.036}, {"molecule": "C[C@@H](N[C@H](C)c1cccc2ccccc12)c1ccc(I)cc1", "note": "[Compound 26D, hydrochloride]", "EC50": 0.047}, {"molecule": "CCOc1ccc([C@@H](C)N[C@H](C)c2cccc3ccccc23)cc1C", "note": "[Compound 26E, hydrochloride]", "EC50": 0.077}, {"molecule": "CC(=Cc1ccccc1)CN[C@H](C)c1cccc2ccccc12", "note": "[Compound 26I, (R)-N-(2-methyl-3-phenyl-2-propenyl)-1-(1-naphthyl)ethylamine hydrochloride]", "EC50": 0.126}, {"molecule": "(R,R)-N-(1-Ethyl-4′-methoxy-3′-bromophenyl)-1-(1-naphthyl)ethylamine hydrochloride [Compound 26G]", "EC50": 0.011}, {"molecule": "COc1ccccc1C=CCN[C@H](C)c1cccc2ccccc12", "note": "[Compound 26J, hydrochloride]", "EC50": 0.047}]}]}
